The record followed here is patent US20160235727A1, “NOVEL PYRROLIDINE DERIVED BETA 3 ADRENERGIC RECEPTOR AGONISTS” (Merck Sharp & Dohme Corp., priority 2013, published 2016).

Molecules are shown by their SMILES. Bounds are passed on as bounds.

The target in this experiment is T1, human β3-AR (Homo sapiens, UniProt P13945).
T1 construct: expressed in transfected cells; host or cells: CHO (Chinese hamster ovary) cells, stably transfected
In words: cAMP functional agonist assay (LANCE TR-FRET) in CHO cells expressing cloned human β3-AR. Format: cell-based. The following applies: for EC50: CHO cells stably expressing cloned human β3-adrenoceptor, cAMP release, read-out: Human β3-AR Agonism EC50; for Fold drop in potency vs. 2-chloropyridine analog: EC50 of comparative example divided by EC50 of corresponding 2-chloropyridine compound; for Human β3-AR Agonist Activity (%): percent maximum activation relative to isoproterenol. (In general: Time-resolved FRET reads energy transfer from a long-lived donor to a nearby acceptor.)

T1 sequence (P13945 whole entry): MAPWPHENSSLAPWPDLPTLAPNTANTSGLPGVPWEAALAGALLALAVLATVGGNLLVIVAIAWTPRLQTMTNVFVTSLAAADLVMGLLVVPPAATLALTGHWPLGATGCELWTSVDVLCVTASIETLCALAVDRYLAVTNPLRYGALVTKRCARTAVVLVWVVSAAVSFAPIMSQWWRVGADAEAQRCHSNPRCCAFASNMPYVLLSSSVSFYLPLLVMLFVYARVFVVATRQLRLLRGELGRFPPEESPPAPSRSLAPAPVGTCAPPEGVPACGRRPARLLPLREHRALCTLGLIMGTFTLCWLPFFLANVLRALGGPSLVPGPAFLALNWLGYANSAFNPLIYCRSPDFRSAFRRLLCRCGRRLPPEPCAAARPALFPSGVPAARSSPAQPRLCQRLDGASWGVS

As usually defined, the EC50 is the concentration needed to bring the measured effect to its halfway point. On to `CN(Cc1cncc(C(=O)O)c1)C(=O)c1ccc(C[C@@H]2CC[C@H]([C@H](O)c3ccc(Cl)cc3)N2)cc1` [Example 33-G, 5-((4-(((2S,5R)-5-((R)-(4-chlorophenyl)(hydroxy)methyl)pyrrolidin-2-yl)methyl)-N-methylbenzamido)methyl)nicotinic acid], for which the EC50 was 63 nM, the “Fold drop in potency vs. 2-chloropyridine analog” value was 1.4 fold and the “Human β3-AR Agonist Activity (%)” value was 102%.
`Cc1cc(C(Cc2ccccc2)N(C)C(=O)c2ccc(C[C@@H]3CC[C@H]([C@H](O)c4ccc(Cl)nc4)N3)cc2)[nH]n1` (stereo partly drawn) [Example 6-A, 4-(((2S,5R)-5-((R)-(6-chloropyridin-3-yl)(hydroxy)methyl)pyrrolidin-2-yl)methyl)-N-methyl-N-(1-(5-methyl-1H-pyrazol-3-yl)-2-phenylethyl)benzamide]: the EC50 came to 3 nM and the “Human β3-AR Agonist Activity (%)” value is given as 93%.
The like results for `CN(Cc1nc2ccccc2c(=O)n1C)C(=O)c1ccc(C[C@@H]2CC[C@H]([C@H](O)c3ccc(Cl)nc3)N2)cc1` [Example 45-A, 4-(((2S,5R)-5-((R)-(6-chloropyridin-3-yl)(hydroxy)methyl)pyrrolidin-2-yl)methyl)-N-methyl-N-((3-methyl-4-oxo-3,4-dihydroquinazolin-2-yl)methyl)benzamide] were, in that order, 25 nM and 90%.
The like results for `Cc1nnc2ccc(CN(C)C(=O)c3ccc(C[C@@H]4CC[C@H]([C@H](O)c5ccc(Cl)nc5)N4)cc3)cn12` [Example 43-A, 4-(((2S,5R)-5-((R)-(6-chloropyridin-3-yl)(hydroxy)methyl)pyrrolidin-2-yl)methyl)-N-methyl-N-((3-methyl-[1,2,4]triazolo[4,3-a]pyridin-6-yl)methyl)benzamide] were, in that order, above 10000 nM and 45%.
The like results for `CCC(c1cc(C)n[nH]1)N(C)C(=O)c1ccc(C[C@@H]2CC[C@H]([C@H](O)c3ccc(Cl)nc3)N2)cc1` (stereo partly drawn) [Example 5-A, 4-(((2S,5R)-5-((R)-(6-chloropyridin-3-yl)(hydroxy)methyl)pyrrolidin-2-yl)methyl)-N-methyl-N-(1-(5-methyl-1H-pyrazol-3-yl)propyl)benzamide] were, in that order, 2 nM and 102%.
Turning to `CC(c1cnccn1)N(C)C(=O)c1ccc(C[C@@H]2CC[C@H]([C@H](O)c3ccc(F)cc3)N2)cc1` (stereo partly drawn) [Example 41-F, 4-(((2S,5R)-5-((R)-(4-fluorophenyl)(hydroxy)methyl)pyrrolidin-2-yl)methyl)-N-methyl-N-(1-(pyrazin-2-yl)ethyl)benzamide], the EC50 stood at 6 nM, the “Fold drop in potency vs. 2-chloropyridine analog” value turned out to be 3.5 fold and the “Human β3-AR Agonist Activity (%)” value stood at 83%.
On to `Cc1cc(CN(C)C(=O)c2ccc(C[C@@H]3CC[C@H]([C@H](O)c4ccc(F)cc4)N3)cc2)n[nH]1` [Example 4-F, 4-(((2S,5R)-5-((R)-(4-fluorophenyl)(hydroxy)methyl)pyrrolidin-2-yl)methyl)-N-methyl-N-((5-methyl-1H-pyrazol-3-yl)methyl)benzamide], for which the EC50 is 19 nM, the “Fold drop in potency vs. 2-chloropyridine analog” value turned out to be 3.5 fold and the “Human β3-AR Agonist Activity (%)” value came out at 105%.
The like results for `CN(Cc1cccnc1F)C(=O)c1ccc(C[C@@H]2CC[C@H]([C@H](O)c3cccnc3)N2)cc1` [Example 26-H, N-((2-fluoropyridin-3-yl)methyl)-4-(((2S,5R)-5-((R)-hydroxy(pyridin-3-yl)methyl)pyrrolidin-2-yl)methyl)-N-methylbenzamide] were, in that order, 397 nM, 11.3 fold and 96%.
The like results for `CCC(c1cc(C)[nH]n1)N(C)C(=O)c1ccc(C[C@@H]2CC[C@H]([C@H](O)c3cccnc3)N2)cc1` (stereo partly drawn) [Example 5-H, 4-(((2S,5R)-5-((R)-hydroxy(pyridin-3-yl)methyl)pyrrolidin-2-yl)methyl)-N-methyl-N-(1-(5-methyl-1H-pyrazol-3-yl)propyl)benzamide] were, in that order, 3 nM, 1.6 fold and 106%.
The like results for `Cc1cc([C@@H](O)[C@H]2CC[C@@H](Cc3ccc(C(=O)N(C)Cc4cccnc4)cc3)N2)cnc1Cl` [Example 21-S, 4-(((2S,5R)-5-((R)-(6-chloro-5-methylpyridin-3-yl)(hydroxy)methyl)pyrrolidin-2yl)methyl)-N-methyl-N-(pyridin-3-ylmethyl)benzamide] were, in that order, 307 nM, 72.1 fold and 84%.
`COC(=O)c1cncc(CN(C)C(=O)c2ccc(C[C@@H]3CC[C@H]([C@H](O)c4ccccc4)N3)cc2)c1` [Example 34-B, Methyl 5-((4-(((2S,5R)-5-((R)-hydroxy(phenyl)methyl)pyrrolidin-2-yl)methyl)-N-methylbenzamido)methyl)nicotinate]: the 50% effective concentration (EC50) is 14 nM, the “Fold drop in potency vs. 2-chloropyridine analog” value was found to be 2.3 fold and the “Human β3-AR Agonist Activity (%)” value came out at 101%.
Turning to `CN(Cc1cnccn1)C(=O)c1ccc(C[C@@H]2CC[C@H]([C@H](O)c3ccc(Cl)cc3)N2)cc1` [Example 40-G, 4-(((2S,5R)-5-((R)-(4-chlorophenyl)(hydroxy)methyl)pyrrolidin-2-yl)methyl)-N-methyl-N-(pyrazin-2-ylmethyl)benzamide], the EC50 turned out to be 19 nM, the “Fold drop in potency vs. 2-chloropyridine analog” value was 1.6 fold and the “Human β3-AR Agonist Activity (%)” value stood at 100%.
The like results for `CC(O)c1cncc(CN(C)C(=O)c2ccc(C[C@@H]3CC[C@H]([C@H](O)c4ccccc4)N3)cc2)c1` (stereo partly drawn) [Example 31-B, 4-(((2S,5R)-5-((R)-hydroxy(phenyl)methyl)pyrrolidin-2-yl)methyl)-N-((5-(1-hydroxyethyl)pyridin-3-yl)methyl)-N-methylbenzamide] were, in that order, 16 nM, 2.3 fold and 104%.
For the molecule `COc1c(CN(C)C(=O)c2ccc(C[C@@H]3CC[C@H]([C@H](O)c4ccc(Cl)nc4)N3)cc2)n[nH]c1C` [Example 16-A, 4-(((2S,5R)-5-((R)-(6-chloropyridin-3-yl)(hydroxy)methyl)pyrrolidin-2-yl)methyl)-N-((4-methoxy-5-methyl-1H-pyrazol-3-yl)methyl)-N-methylbenzamide], the concentration giving a half-maximal response (EC50) is 2 nM and the “Human β3-AR Agonist Activity (%)” value came out at 102%.
In the case of `CC(C)[C@H](c1nn(C)c(=O)o1)N(C)C(=O)c1ccc(C[C@@H]2CC[C@H]([C@H](O)c3ccccc3)N2)cc1` [Example 19-B, 4-(((2S,5R)-5-((R)-hydroxy(phenyl)methyl)pyrrolidin-2-yl)methyl)-N-methyl-N—((R)-2-methyl-1-(4-methyl-5-oxo-4,5-dihydro-1,3,4-oxadiazol-2-yl)propyl)benzamide], the EC50 was 32 nM, the “Fold drop in potency vs. 2-chloropyridine analog” value was 5.8 fold and the “Human β3-AR Agonist Activity (%)” value was 115%.
